Values belong to the molecule of their own block, whether it stands above or below them. Calls of active or inactive are those of the source. The rule behind the calls is not given here.
How the values were obtained:
[1] = biological target: Isocitrate dehydrogenase [NADP] cytoplasmic (Homo sapiens, UniProt O75874, R132H); test: Inhibition of recombinant human N-terminal GST-fused IDH1 R132H mutant expressed in Escherichia coli using alpha-ketoglutarate as substrate preincubated for 15 mins followed by substrate addition
Isocitrate dehydrogenase [NADP] cytoplasmic (Homo sapiens, UniProt O75874, R132H), sequence (O75874 2-414 R132H limits assumed): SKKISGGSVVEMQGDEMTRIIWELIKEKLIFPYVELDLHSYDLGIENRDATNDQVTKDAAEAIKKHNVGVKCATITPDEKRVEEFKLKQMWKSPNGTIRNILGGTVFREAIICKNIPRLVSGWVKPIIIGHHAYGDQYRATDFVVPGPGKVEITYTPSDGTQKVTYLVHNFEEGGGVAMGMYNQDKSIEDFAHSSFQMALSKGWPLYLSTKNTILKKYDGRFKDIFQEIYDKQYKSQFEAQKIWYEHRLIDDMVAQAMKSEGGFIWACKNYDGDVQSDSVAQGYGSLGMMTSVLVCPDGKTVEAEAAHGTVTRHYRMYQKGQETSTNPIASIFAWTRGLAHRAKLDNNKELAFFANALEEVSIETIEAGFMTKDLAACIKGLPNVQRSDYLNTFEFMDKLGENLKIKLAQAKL

[2] = tested on: Isocitrate dehydrogenase [NADP] cytoplasmic (Homo sapiens), O75874 [R132H]; test: Inhibition of recombinant human N-terminal GST-fused IDH1 R132H mutant expressed in Escherichia coli at 20 ug/ml using alpha-ketoglutarate as substrate preincubated for 15 mins followed by substrate addition relative to control
Isocitrate dehydrogenase [NADP] cytoplasmic (Homo sapiens), O75874 [R132H], sequence (O75874 whole entry R132H, the tested form may be a part): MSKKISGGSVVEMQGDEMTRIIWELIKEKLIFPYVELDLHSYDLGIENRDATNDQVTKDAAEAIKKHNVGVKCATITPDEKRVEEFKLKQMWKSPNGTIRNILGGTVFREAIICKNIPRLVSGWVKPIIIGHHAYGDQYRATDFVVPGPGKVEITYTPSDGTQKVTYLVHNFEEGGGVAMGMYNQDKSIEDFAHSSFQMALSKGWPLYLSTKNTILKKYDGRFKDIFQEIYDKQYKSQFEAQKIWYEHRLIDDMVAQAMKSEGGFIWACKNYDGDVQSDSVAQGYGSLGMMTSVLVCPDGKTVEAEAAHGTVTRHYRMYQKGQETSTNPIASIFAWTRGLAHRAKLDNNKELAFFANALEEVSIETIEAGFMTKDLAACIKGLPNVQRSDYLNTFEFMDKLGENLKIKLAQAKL

[3] = biological target: T1, Isocitrate dehydrogenase [NADP], mitochondrial (Homo sapiens, UniProt P48735); test: Inhibition of recombinant human N-terminal GST-fused wild-type IDH2 using sodium (D)-isocitrate as substrate preincubated for 15 mins followed by substrate addition by fluorescence assay
T1 sequence (P48735 whole entry): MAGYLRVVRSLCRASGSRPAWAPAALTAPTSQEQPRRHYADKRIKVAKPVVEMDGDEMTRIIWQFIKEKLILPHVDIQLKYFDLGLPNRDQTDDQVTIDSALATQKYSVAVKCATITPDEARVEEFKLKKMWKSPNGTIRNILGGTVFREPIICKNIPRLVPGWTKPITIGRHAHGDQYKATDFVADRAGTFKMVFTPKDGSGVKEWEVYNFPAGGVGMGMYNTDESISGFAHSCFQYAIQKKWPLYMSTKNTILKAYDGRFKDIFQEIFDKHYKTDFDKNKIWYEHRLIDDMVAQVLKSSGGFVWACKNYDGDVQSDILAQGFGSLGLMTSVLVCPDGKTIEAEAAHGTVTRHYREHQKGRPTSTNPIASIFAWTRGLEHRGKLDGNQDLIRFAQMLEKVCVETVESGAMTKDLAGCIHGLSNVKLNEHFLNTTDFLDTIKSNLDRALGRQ

[4] = biological target: T2, Hexokinase-4 (Homo sapiens, UniProt P35557); test: Inhibition of recombinant human N-terminal GST-fused glucokinase expressed in Escherichia coli using […] by spectrophotometric assay
T2 sequence (P35557 whole entry): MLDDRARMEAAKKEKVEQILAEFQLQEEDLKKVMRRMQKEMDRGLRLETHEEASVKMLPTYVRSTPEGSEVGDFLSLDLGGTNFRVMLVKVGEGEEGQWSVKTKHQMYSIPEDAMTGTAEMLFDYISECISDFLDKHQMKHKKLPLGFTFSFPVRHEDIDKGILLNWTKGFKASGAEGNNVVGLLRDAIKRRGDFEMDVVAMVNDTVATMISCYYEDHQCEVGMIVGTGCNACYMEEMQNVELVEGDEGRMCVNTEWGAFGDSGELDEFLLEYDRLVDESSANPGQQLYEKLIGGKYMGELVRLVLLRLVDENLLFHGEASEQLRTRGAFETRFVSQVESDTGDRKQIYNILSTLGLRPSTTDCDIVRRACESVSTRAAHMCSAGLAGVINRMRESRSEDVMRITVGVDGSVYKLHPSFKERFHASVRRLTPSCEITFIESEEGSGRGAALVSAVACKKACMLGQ

[5] = biological target: Isocitrate dehydrogenase [NADP] cytoplasmic (Homo sapiens, UniProt O75874, R132C); test: Inhibition of recombinant human N-terminal GST-fused IDH1 R132C mutant expressed in Escherichia coli using alpha-ketoglutarate as substrate preincubated for 15 mins followed by substrate addition
Isocitrate dehydrogenase [NADP] cytoplasmic (Homo sapiens, UniProt O75874, R132C), sequence (O75874 2-414 R132C limits assumed): as the sequence (O75874 2-414 R132H limits assumed) above, with H131C counted along it

[6] = biological target: Isocitrate dehydrogenase [NADP] cytoplasmic (Homo sapiens, UniProt O75874, R132L); test: Inhibition of recombinant human N-terminal GST-fused IDH1 R132L mutant expressed in Escherichia coli using alpha-ketoglutarate as substrate preincubated for 15 mins followed by substrate addition
Isocitrate dehydrogenase [NADP] cytoplasmic (Homo sapiens, UniProt O75874, R132L), sequence (O75874 2-414 R132L limits assumed): as the sequence (O75874 2-414 R132H limits assumed) above, with H131L counted along it

[7] = Inhibition of bovine GDH using L-glutamate as substrate measured after 1 hr; parameters: species or system Bos taurus
[8] = Inhibition of Fructose-1,6-bisphosphatase expressed in Escherichia coli BL21 (DE3) by glucose-6-phosphate dehydrogenase/phosphoglucoisomerase coupled spectrophotometric method; parameters: species or system Corynebacterium glutamicum
[9] = tested on: Isocitrate dehydrogenase [NADP] cytoplasmic (Homo sapiens), O75874 [R132H]; test: Inhibition of human IDH1 R132H mutant expressed in human U87MG cells assessed as reduction in 2-HG production at 5 to 20 uM after 48 hrs by LC-MS/MS analysis; assay type: cell-based
[10] = biological target: Isocitrate dehydrogenase [NADP] cytoplasmic (Homo sapiens, UniProt O75874); test: Inhibition of recombinant human N-terminal GST-fused wild-type IDH1 using sodium (D)-isocitrate as substrate by fluorescence assay
Isocitrate dehydrogenase [NADP] cytoplasmic (Homo sapiens, UniProt O75874), sequence (O75874 whole entry, the tested form may be a part): as the sequence (O75874 whole entry R132H, the tested form may be a part) above, with H132R counted along it

[11] = tested on: Isocitrate dehydrogenase [NADP] cytoplasmic (Homo sapiens), O75874 [R132H]; test: Inhibition of human IDH1 R132H mutant expressed in human U87MG cells assessed as reduction in 2-HG production after 48 hrs by LC-MS/MS analysis; assay type: cell-based
[12] = tested on: Isocitrate dehydrogenase [NADP] cytoplasmic (Homo sapiens), O75874 [R132H]; test: Inhibition of IDH1 R132H mutant in human TF1 cells assessed as reversal of cell differentiation block by measuring increase in HBG mRNA expression at 5 to 10 uM after 7 days by RT-qPCR analysis; assay type: cell-based

SMILES: O=C1NC(=O)C(c2cn(CCCn3ccnc3)c3ccccc23)=C1c1coc2ncccc12
IC50 [1]: 2220 nM

SMILES: O=C1NC(=O)C(n2ccc3ccncc32)=C1c1cn(CCCn2ccnc2)c2ccccc12
IC50 [1]: 1450 nM

SMILES: O=C1NC(=O)C(n2nnc3ccccc32)=C1c1cn(CCCn2ccnc2)c2ccccc12
IC50 [1]: 1400 nM

SMILES: Cn1cc(C2=C(c3cn(CCCn4ccnc4)c4ccccc34)C(=O)NC2=O)c2ccccc21
IC50 [1]: 1480 nM

SMILES: O=C1NC(=O)C(n2ccc3cnccc32)=C1c1cn(CCCn2ccnc2)c2ccccc12
IC50 [1]: 3720 nM

SMILES: Cn1nc(C2=C(c3cn(CCCn4ccnc4)c4ccc(Br)cc34)C(=O)NC2=O)c2cccnc21
IC50 [1]: 5000 nM

SMILES: Cn1nc(C2=C(c3cn(CCCN4CCOCC4)c4ccccc34)C(=O)NC2=O)c2cccnc21
inhibition [2]: 7.36%

SMILES: Cn1cc(C2=C(c3nn(CCCn4cncn4)c4ncccc34)C(=O)NC2=O)c2ccccc21
inhibition [2]: 20.6%

SMILES: O=C1NC(=O)C(c2cn(CCCn3ccnc3)c3ccccc23)=C1c1ccccc1
IC50 [1]: 1980 nM

SMILES: O=C1NC(=O)C(c2cn(CCCn3ccnc3)c3ccccc23)=C1c1cccc2ccccc12
IC50 [1]: 3050 nM

SMILES: Cn1nc(C2=C(c3c[nH]c4ccccc34)C(=O)NC2=O)c2cccnc21
inhibition [2]: 38.1%

SMILES: Cn1cc(C2=C(c3nn(CCCn4ccnc4)c4ncccc34)C(=O)NC2=O)c2ccccc21
IC50 [1]: 1280 nM

SMILES: Cn1nc(C2=C(c3cn(CCn4ccnc4)c4ccccc34)C(=O)NC2=O)c2cccnc21
IC50 [1]: 4420 nM

SMILES: Cn1nc(C2=C(c3cn(CCCn4cncn4)c4ccccc34)C(=O)NC2=O)c2cccnc21
IC50 [1]: 11900 nM

SMILES: COc1ccc2c(c1)c(C1=C(c3nn(C)c4ncccc34)C(=O)NC1=O)cn2CCCn1ccnc1
IC50 [1]: 13600 nM

SMILES: Cn1nc(C2=C(c3cn(CCCO)c4ccccc34)C(=O)NC2=O)c2cccnc21
IC50 [1]: 39600 nM

SMILES: Cn1nc(C2=C(c3cn(CCCn4ccnc4)c4ccccc34)C(=O)NC2=O)c2ccccc21
IC50 [1]: 1540 nM

SMILES: O=C1NC(=O)C(c2cn(CCCn3ccnc3)c3ccccc23)=C1c1cc[nH]c1
IC50 [1]: 1580 nM

SMILES: Cn1cc(C2=C(c3nn(CCCN4CCOCC4)c4ncccc34)C(=O)NC2=O)c2ccccc21
inhibition [2]: 17.3%

SMILES: O=C1NC(=O)C(n2cnc3ccccc32)=C1c1cn(CCCn2ccnc2)c2ccccc12
IC50 [1]: 7910 nM

More lines, in order of falling IC50 [1], values ahead:

IC50 [1]: 950 nM
SMILES: CCCCn1nc(C2=C(c3cn(CCCn4ccnc4)c4ccccc34)C(=O)NC2=O)c2cccnc21

IC50 [1]: 930 nM
SMILES: CN1C(=O)C(c2cn(CCCn3ccnc3)c3ccccc23)=C(c2nn(C)c3ncccc23)C1=O

IC50 [1]: 930 nM
SMILES: Cn1nc(C2=C(c3cn(CCCn4ccnc4)c4cccc(Br)c34)C(=O)NC2=O)c2cccnc21

IC50 [1]: 810 nM
SMILES: Cn1nc(C2=C(c3cn(CCCn4ccnc4)c4ccc(F)cc34)C(=O)NC2=O)c2cccnc21

IC50 [1]: 290 nM
SMILES: Cc1cccc2c(C3=C(c4nn(C)c5ncccc45)C(=O)NC3=O)cn(CCCn3ccnc3)c12

IC50 [1]: 230 nM
SMILES: CCn1nc(C2=C(c3cn(CCCn4ccnc4)c4ccccc34)C(=O)NC2=O)c2cccnc21

IC50 [1]: 190 nM
SMILES: COc1ccc2c(C3=C(c4nn(C)c5ncccc45)C(=O)NC3=O)cn(CCCn3ccnc3)c2c1

IC50 [3]: > 20000 nM
IC50 [1]: 140 nM
IC50 [4]: > 20000 nM
IC50 [5]: 423 nM
inhibition [11]: Dose-dependent effect
IC50 [6]: 307 nM
IC50 [7]: > 20000 nM
IC50 [8]: > 20000 nM
IC50 [10]: > 20000 nM
SMILES: Cn1nc(C2=C(c3cn(CCCn4ccnc4)c4cc(Cl)ccc34)C(=O)NC2=O)c2cccnc21

IC50 [3]: > 20000 nM
IC50 [1]: 100 nM
IC50 [4]: > 20000 nM
IC50 [5]: 415 nM
IC50 [6]: 311 nM
IC50 [7]: > 20000 nM
IC50 [8]: > 20000 nM
inhibition [9]: inactive
IC50 [10]: > 20000 nM
SMILES: Cn1nc(C2=C(c3cn(CCCCn4ccnc4)c4ccccc34)C(=O)NC2=O)c2cccnc21

IC50 [3]: > 20000 nM
IC50 [1]: 90 nM
IC50 [4]: > 20000 nM
IC50 [5]: 334 nM
inhibition [11]: Dose-dependent effect
IC50 [6]: 246 nM
IC50 [7]: > 20000 nM
IC50 [8]: > 20000 nM
IC50 [10]: > 20000 nM
SMILES: Cn1nc(C2=C(c3cn(CCCn4ccnc4)c4cc(F)ccc34)C(=O)NC2=O)c2cccnc21

IC50 [3]: > 20000 nM
IC50 [1]: 60 nM
IC50 [4]: > 20000 nM
IC50 [5]: 460 nM
inhibition [11]: Dose-dependent effect
IC50 [6]: 192 nM
IC50 [7]: > 20000 nM
IC50 [8]: > 20000 nM
IC50 [10]: > 20000 nM
inhibition [12]: Active
SMILES: Cn1nc(C2=C(c3cn(CCCn4ccnc4)c4cc(Br)ccc34)C(=O)NC2=O)c2cccnc21

IC50 [3]: > 20000 nM
IC50 [1]: 60 nM
IC50 [4]: > 20000 nM
IC50 [5]: 483 nM
inhibition [11]: Dose-dependent effect
IC50 [6]: 189 nM
IC50 [7]: > 20000 nM
IC50 [8]: > 20000 nM
IC50 [10]: > 20000 nM
SMILES: Cc1ccc2c(C3=C(c4nn(C)c5ncccc45)C(=O)NC3=O)cn(CCCn3ccnc3)c2c1

IC50 [3]: > 20000 nM
IC50 [1]: 50 nM
IC50 [4]: > 20000 nM
IC50 [5]: 386 nM
IC50 [6]: 398 nM
IC50 [7]: > 20000 nM
IC50 [8]: > 20000 nM
inhibition [9]: inactive
IC50 [10]: > 20000 nM
SMILES: Cn1nc(C2=C(c3cn(CCCn4ccnc4)c4ccccc34)C(=O)NC2=O)c2cccnc21

IC50 [3]: > 20000 nM
IC50 [1]: 20 nM
IC50 [4]: > 20000 nM
IC50 [5]: 227 nM
IC50 [6]: 186 nM
IC50 [7]: > 20000 nM
IC50 [8]: > 20000 nM
IC50 [10]: > 20000 nM
SMILES: Cc1ccccc1C(C(=O)NC1CCCCC1)N(C(=O)Cn1ccnc1C)c1cccc(F)c1 (stereo not given)

Reference: ChEMBL document CHEMBL4330107, “Synthesis and biological evaluation of 3-aryl-4-indolyl-maleimides as potent mutant isocitrate dehydrogenase-1 inhibitors” (Bioorg Med Chem, 2019)
